Assay results reported in patent US10695321B2, “Use of glycopyrrolate for treating tachycardia” (Heptares Therapeutics Limited, priority 2011, dated 2020).

System: subjects with COPD
Assay: Phase IIa placebo-controlled crossover dose-ranging study, heart rate (vital signs) after single inhaled dose
Type: in vivo, human
Conditions: for Adjusted Mean for Average Change in Heart Rate from Test day Baseline: ANCOVA
Protocol: The study was a Phase IIa, multi-centre, randomised, double-blind, placebo-controlled, crossover, dose-ranging study using four dose levels of glycopyrronium bromide in subjects with COPD. A total of 40 subjects were required to complete the study.
Subjects were randomised to receive a single inhaled dose of 20, 125, 250 and 400 μg of glycopyrronium bromide in ascending order, with a placebo dose randomised into the sequence over 5 study visits. Subjects were randomised to receive treatment on Study Day 1 prior to dosing. All doses, including placebo, were administered using the Miat Monohaler.
The Treatment period then consisted of five study visits (separated by a 5-14-day wash-out period), during which subjects were dosed with a single inhaled dose of glycopyrronium bromide using a Miat Monohaler, in ascending order (20, 125, 250 or 400 μg). A placebo was randomly administered (using a Miat Monohaler) at one of the study visits; subsequent visits continued with the next highest dose of glycopyrronium bromide to that which was administered prior to the placebo.
All subjects were scheduled to be dosed between 08:00 and 10:00 am. For individual subjects, dosing was at the same time of day (±30 minutes). At each dosing visit, subjects received a single dose of glycopyrronium bromide or placebo administered via Miat Monohaler. Each different dose (20, 125, 250 or 400 μg) was contained in one capsule. An appropriate number of Miat Monohalers to conduct the study was also supplied to the site. A new Miat Monohaler was used to administer each dose at each visit.
copyrronium bromide was presented in size 3, white opaque, hard, gelatin capsules packaged in aluminium pouches. The capsules were presented in four dose strengths containing 20, 125, 250, or 400 μg glycopyrronium bromide. In addition to glycopyrronium bromide, excipient present in the capsule formulation consisted of the PowderHale^TM formulation of lactose and magnesium stearate.
All vital signs were measured on each study day, including heart rate (with the subject semi-supine for 5 minutes prior to measurement); blood pressure; respiratory rate and temperature were measured at each visit and before receiving study medication (pre-treatment), if applicable. Blood pressure and heart rate were also measured at 45, 90 minutes and 5, 10, 20 and 30 hours post-treatment on study days.
The statistical analyses were to be reported using summary tables and data listings. Statistical tests for the evaluation were to be performed at the 0.05 significance level using a two-sided test.
All analyses and tabulations were to be performed using SASS Version 6.12 on a PC platform. Continuous variables were to be summarised with sample size (n), mean, standard deviation (SD), minimum, median, and maximum. […] The mean was to have one extra decimal place and the standard deviation was to have two extra decimal places. Categorical variables were to be summarised with number and percentage of subjects.

[1] = 20 μg single inhaled dose, 45 mins post-dose
[2] = 20 μg single inhaled dose, 90 mins post-dose
[3] = 20 μg single inhaled dose, 5 hrs post-dose
[4] = 20 μg single inhaled dose, 10 hrs post-dose
[5] = 20 μg single inhaled dose, 20 hrs post-dose
[6] = 20 μg single inhaled dose, 30 hrs post-dose
[7] = 20 μg single inhaled dose, pre-dose to 45 mins post-dose
[8] = 20 μg single inhaled dose, pre-dose to 90 mins post-dose
[9] = 20 μg single inhaled dose, pre-dose to 5 hours post-dose
[10] = 20 μg single inhaled dose, pre-dose to 10 hours post-dose
[11] = 20 μg single inhaled dose, pre-dose to 20 hours post-dose
[12] = 125 μg single inhaled dose, 45 mins post-dose
[13] = 125 μg single inhaled dose, 90 mins post-dose
[14] = 125 μg single inhaled dose, 5 hrs post-dose
[15] = 125 μg single inhaled dose, 10 hrs post-dose
[16] = 125 μg single inhaled dose, 20 hrs post-dose
[17] = 125 μg single inhaled dose, 30 hrs post-dose
[18] = 125 μg single inhaled dose, pre-dose to 45 mins post-dose
[19] = 125 μg single inhaled dose, pre-dose to 90 mins post-dose
[20] = 125 μg single inhaled dose, pre-dose to 5 hours post-dose
[21] = 125 μg single inhaled dose, pre-dose to 10 hours post-dose
[22] = 125 μg single inhaled dose, pre-dose to 20 hours post-dose
[23] = 125 μg single inhaled dose, pre-dose to 30 hours post-dose

C[N+]1(C)CCC(OC(=O)C(O)(c2ccccc2)C2CCCC2)C1 (stereo not drawn) [glycopyrronium bromide] was tested. Which “Heart Rate Mean” value [1] did it give?
The value was 70.3 bpm.

And the “Heart Rate Median” value [1]?
Its value is 68.0 bpm.

And the “Heart Rate Mean” value [2]?
Its value is 72.5 bpm.

What about the “Heart Rate Median” value [2] of the same molecule?
The value was 71.0 bpm.

And the “Heart Rate Mean” value [3]?
Its value is 72.8 bpm.

And the “Heart Rate Median” value [3]?
The value was 74.0 bpm.

What about the “Heart Rate Mean” value [4] of the same molecule?
Its value is 69.1 bpm.

And the “Heart Rate Median” value [4]?
The value was 68.0 bpm.

And the “Heart Rate Mean” value [5]?
Its value is 68.8 bpm.

What about the “Heart Rate Median” value [5] of the same molecule?
The value was 69.5 bpm.

What about the “Heart Rate Mean” value [6] of the same molecule?
The value was 69.8 bpm.

What about the “Heart Rate Median” value [6] of the same molecule?
The value was 70.0 bpm.

And the “Heart Rate Change from Test day Baseline, Mean” value (shortened to “Heart Rate Change … Mean”) [7]?
Its value is −2.5 bpm.

And the “Heart Rate Change from Test day Baseline, Median” value (shortened to “Heart Rate Change … Median”) [7]?
The value was −2.0 bpm.

And the “Heart Rate Change … Mean” value [8]?
Its value is −0.2 bpm.

And the “Heart Rate Change … Median” value [8]?
The value was 0.0 bpm.

What about the “Heart Rate Change … Mean” value [9] of the same molecule?
Its value is −0.0 bpm.

And the “Heart Rate Change … Median” value [9]?
Its value is 1.0 bpm.

And the “Heart Rate Change … Mean” value [10]?
The value was −3.4 bpm.

What about the “Heart Rate Change … Median” value [10] of the same molecule?
The value was −1.0 bpm.

And the “Heart Rate Change … Mean” value [11]?
The value was −3.6 bpm.

What about the “Heart Rate Change … Median” value [11] of the same molecule?
The value was −3.0 bpm.

And the “Heart Rate Change … Mean” value (20 μg single inhaled dose, pre-dose to 30 hours post-dose)?
The value was −2.7 bpm.

And the “Adjusted Mean for Average Change in Heart Rate from Test day Baseline” value (“Adjusted Mean for Average Change” below) (20 μg, to 45 mins post-dose)?
Its value is −2.323 bpm.

What about the “Dose v Placebo Difference, adjusted mean change in Heart Rate from Test day Baseline” value (20 μg, to 45 mins post-dose, p-value 0.997) of the same molecule?
Its value is 0.005 bpm.

And the “Adjusted Mean for Average Change” value (20 μg, to 90 mins post-dose)?
Its value is 0.033 bpm.

And the “Dose v Placebo Difference, adjusted mean change in Heart Rate from Test day Baseline” value (20 μg, to 90 mins post-dose, p-value 0.489)?
The value was −1.239 bpm.

What about the “Adjusted Mean for Average Change” value (20 μg, to 5 hours post-dose) of the same molecule?
The value was 1.933 bpm.

What about the “Dose v Placebo Difference, adjusted mean change in Heart Rate from Test day Baseline” value (20 μg, to 5 hours post-dose, p-value 0.945) of the same molecule?
The value was −0.114 bpm.

What about the “Adjusted Mean for Average Change” value (20 μg, to 10 hours post-dose) of the same molecule?
Its value is −0.126 bpm.

What about the “Dose v Placebo Difference, adjusted mean change in Heart Rate from Test day Baseline” value (20 μg, to 10 hours post-dose, p-value 0.349) of the same molecule?
Its value is 1.698 bpm.

What about the “Adjusted Mean for Average Change” value (20 μg, to 20 hours post-dose) of the same molecule?
The value was −4.339 bpm.

And the “Dose v Placebo Difference, adjusted mean change in Heart Rate from Test day Baseline” value (20 μg, to 20 hours post-dose, p-value 0.068)?
Its value is −2.872 bpm.

And the “Adjusted Mean for Average Change” value (20 μg, to 30 hours post-dose)?
The value was −0.880 bpm.

What about the “Dose v Placebo Difference, adjusted mean change in Heart Rate from Test day Baseline” value (20 μg, to 30 hours post-dose, p-value 0.379) of the same molecule?
The value was −1.499 bpm.

What about the “Heart Rate Mean” value [12] of the same molecule?
The value was 65.5 bpm.

What about the “Heart Rate Median” value [12] of the same molecule?
The value was 63.5 bpm.

What about the “Heart Rate Mean” value [13] of the same molecule?
Its value is 67.6 bpm.

And the “Heart Rate Median” value [13]?
The value was 69.0 bpm.

And the “Heart Rate Mean” value [14]?
The value was 70.6 bpm.

What about the “Heart Rate Median” value [14] of the same molecule?
Its value is 73.0 bpm.

What about the “Heart Rate Mean” value [15] of the same molecule?
Its value is 67.0 bpm.

What about the “Heart Rate Median” value [15] of the same molecule?
Its value is 67.0 bpm.

And the “Heart Rate Mean” value [16]?
The value was 66.4 bpm.

What about the “Heart Rate Median” value [16] of the same molecule?
The value was 66.0 bpm.

And the “Heart Rate Mean” value [17]?
The value was 72.1 bpm.

What about the “Heart Rate Median” value [17] of the same molecule?
The value was 72.0 bpm.

And the “Heart Rate Change … Mean” value [18]?
Its value is −3.8 bpm.

And the “Heart Rate Change … Median” value [18]?
The value was −4.0 bpm.

What about the “Heart Rate Change … Mean” value [19] of the same molecule?
Its value is −1.8 bpm.

And the “Heart Rate Change … Median” value [19]?
The value was −2.0 bpm.

What about the “Heart Rate Change … Mean” value [20] of the same molecule?
The value was 1.2 bpm.

And the “Heart Rate Change … Median” value [20]?
The value was 0.5 bpm.

And the “Heart Rate Change … Mean” value [21]?
The value was −2.1 bpm.

And the “Heart Rate Change … Median” value [21]?
The value was −3.0 bpm.

And the “Heart Rate Change … Mean” value [22]?
Its value is −2.5 bpm.

And the “Heart Rate Change … Median” value [22]?
Its value is −1.5 bpm.

What about the “Heart Rate Change … Mean” value [23] of the same molecule?
Its value is 2.8 bpm.

What about the “Heart Rate Change … Median” value [23] of the same molecule?
The value was 1.0 bpm.

And the “Adjusted Mean for Average Change” value (125 μg, to 45 mins post-dose)?
Its value is −2.854 bpm.

What about the “Dose v Placebo Difference, adjusted mean change in Heart Rate from Test day Baseline” value (125 μg, to 45 mins post-dose, p-value 0.712) of the same molecule?
The value was −0.526 bpm.

And the “Adjusted Mean for Average Change” value (125 μg, to 90 mins post-dose)?
The value was −0.650 bpm.

And the “Dose v Placebo Difference, adjusted mean change in Heart Rate from Test day Baseline” value (125 μg, to 90 mins post-dose, p-value 0.240)?
The value was −1.921 bpm.

What about the “Adjusted Mean for Average Change” value (125 μg, to 5 hours post-dose) of the same molecule?
The value was 2.382 bpm.

And the “Dose v Placebo Difference, adjusted mean change in Heart Rate from Test day Baseline” value (125 μg, to 5 hours post-dose, p-value 0.826)?
The value was 0.335 bpm.

And the “Adjusted Mean for Average Change” value (125 μg, to 10 hours post-dose)?
The value was −0.186 bpm.

What about the “Dose v Placebo Difference, adjusted mean change in Heart Rate from Test day Baseline” value (125 μg, to 10 hours post-dose, p-value 0.339) of the same molecule?
Its value is 1.638 bpm.

What about the “Adjusted Mean for Average Change” value (125 μg, to 20 hours post-dose) of the same molecule?
Its value is −1.590 bpm.

What about the “Dose v Placebo Difference, adjusted mean change in Heart Rate from Test day Baseline” value (125 μg, to 20 hours post-dose, p-value 0.932) of the same molecule?
Its value is −0.123 bpm.

And the “Adjusted Mean for Average Change” value (125 μg, to 30 hours post-dose)?
Its value is 2.796 bpm.

And the “Dose v Placebo Difference, adjusted mean change in Heart Rate from Test day Baseline” value (125 μg, to 30 hours post-dose, p-value 0.168)?
The value was 2.177 bpm.

And the “Heart Rate Mean” value (250 μg single inhaled dose, 45 mins post-dose)?
Its value is 65.1 bpm.
